Here are results for three molecules from patent US9062289B2, “Differentiation of primate pluripotent stem cells to cardiomyocyte-lineage cells” (Asterias Biotherapeutics, Inc., priority 2005, dated 2015).

The test system of this assay is primate pluripotent stem cell-derived cardiomyocytes. Put plainly: Contractile activity of primate pluripotent stem cell-derived cardiomyocytes. In kind it is cell-based. The conditions noted are these: spontaneous periodic contractions in culture. On the procedure:
Under appropriate circumstances, primate pluripotent stem cell-derived cardiomyocytes often show spontaneous periodic contractile activity. This means that when they are cultured in a suitable tissue culture environment with an appropriate Ca^++ concentration and electrolyte balance, the cells can be observed to contract across one axis of the cell, and then release from contraction, without having to add any additional components to the culture medium. The contractions are periodic, which means that they repeat on a regular or irregular basis, at a frequency between ˜6 and 200 contractions per minute, and often between ˜20 and ˜90 contractions per minute in normal buffer (FIG. 2). Individual cells may show spontaneous periodic contractile activity on their own, or they may show spontaneous periodic contractile activity in concert with neighboring cells in a tissue, cell aggregate, or cultured cell mass.
The contractile activity of the cells can be characterized according to the influence of culture conditions on the nature and frequency of contractions. Compounds that reduce available Ca^++ concentration or otherwise interfere with transmembrane transport of Ca^++ often affect contractile activity. […] Further characterization of functional properties of the cell can involve characterizing channels for Na^+, K^+, and Ca^++. Electrophysiology can be studied by patch clamp analysis for cardiomyocyte like action potentials. See Igelmund et al., Pflugers Arch. 437:669, 1999; Wobus et al., Ann. N.Y. Acad. Sci. 27:752, 1995; and Doevendans et al., J. Mol. Cell Cardiol. 32:839, 2000.

SMILES strings stand for the structures.

`CNC[C@H](O)c1cccc(O)c1` [phenylephrine]: the chronotropic effect entry was “positive chronotropic effect”.
Still for that read-out and setting: for `CC(C)NCC(O)c1ccc(O)c(O)c1` (stereo not drawn) [isoprenaline] the value was “positive chronotropic effect”.
On to `COc1ccc([C@@H]2Sc3ccccc3N(CCN(C)C)C(=O)[C@@H]2OC(C)=O)cc1` [diltiazem], for which the contractile activity entry is reported as “inhibits contractile activity in a dose-dependent manner”.
